Earlier results as cited in patent publication US8592424B2, “Topical regional neuro-affective therapy” (Afgin Pharma LLC, priority 2008, dated 2013).
Counter-ions that a name gives are not always drawn.

How the values were obtained:
dopamine D1 receptor = dopamine D1 receptor (Homo sapiens, UniProt P21728); details: in vitro tests
[1] = system: patients with advanced Parkinson's disease, "off periods"
D4 dopamine receptor = D4 dopamine receptor (Homo sapiens, UniProt P21917); details: in vitro tests
[2] = system: alpha-adrenergic receptors; details: in vitro tests; some alpha-adrenergic receptors
D3 dopamine receptor = D3 dopamine receptor (Homo sapiens, UniProt P35462); details: in vitro tests
serotonin receptors = details: in vitro tests
[3] = system: patients, some with impotence with erectile dysfunction; details: apomorphine injections, observed and reported
D2 dopamine receptor = D2 dopamine receptor (Homo sapiens, UniProt P14416); details: in vitro tests
[4] = reported clinical trials, despite using Tigan

D3 dopamine receptor, sequence (P35462 whole entry): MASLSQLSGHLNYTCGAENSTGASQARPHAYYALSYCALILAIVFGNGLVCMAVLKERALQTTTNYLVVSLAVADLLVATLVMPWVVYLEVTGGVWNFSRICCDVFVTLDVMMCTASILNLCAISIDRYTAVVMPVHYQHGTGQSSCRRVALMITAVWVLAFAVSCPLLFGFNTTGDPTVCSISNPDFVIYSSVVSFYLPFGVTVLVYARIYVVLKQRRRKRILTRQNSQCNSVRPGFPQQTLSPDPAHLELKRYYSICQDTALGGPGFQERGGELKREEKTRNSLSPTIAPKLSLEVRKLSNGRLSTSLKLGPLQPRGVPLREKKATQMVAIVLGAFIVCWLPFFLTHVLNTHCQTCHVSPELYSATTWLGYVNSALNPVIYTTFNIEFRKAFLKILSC
dopamine D1 receptor, sequence (P21728 whole entry): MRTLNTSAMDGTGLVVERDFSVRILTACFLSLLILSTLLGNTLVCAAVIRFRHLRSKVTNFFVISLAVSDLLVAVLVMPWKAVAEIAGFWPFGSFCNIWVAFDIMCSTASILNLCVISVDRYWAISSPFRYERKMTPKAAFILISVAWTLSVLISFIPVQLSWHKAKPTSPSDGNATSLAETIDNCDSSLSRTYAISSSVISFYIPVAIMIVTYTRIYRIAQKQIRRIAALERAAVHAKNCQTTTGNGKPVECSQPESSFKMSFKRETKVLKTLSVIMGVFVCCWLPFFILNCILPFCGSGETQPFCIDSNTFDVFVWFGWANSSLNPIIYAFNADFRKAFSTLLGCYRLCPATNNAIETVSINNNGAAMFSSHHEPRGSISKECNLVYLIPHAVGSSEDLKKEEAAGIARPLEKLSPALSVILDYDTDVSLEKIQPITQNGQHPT
D2 dopamine receptor, sequence (P14416 whole entry): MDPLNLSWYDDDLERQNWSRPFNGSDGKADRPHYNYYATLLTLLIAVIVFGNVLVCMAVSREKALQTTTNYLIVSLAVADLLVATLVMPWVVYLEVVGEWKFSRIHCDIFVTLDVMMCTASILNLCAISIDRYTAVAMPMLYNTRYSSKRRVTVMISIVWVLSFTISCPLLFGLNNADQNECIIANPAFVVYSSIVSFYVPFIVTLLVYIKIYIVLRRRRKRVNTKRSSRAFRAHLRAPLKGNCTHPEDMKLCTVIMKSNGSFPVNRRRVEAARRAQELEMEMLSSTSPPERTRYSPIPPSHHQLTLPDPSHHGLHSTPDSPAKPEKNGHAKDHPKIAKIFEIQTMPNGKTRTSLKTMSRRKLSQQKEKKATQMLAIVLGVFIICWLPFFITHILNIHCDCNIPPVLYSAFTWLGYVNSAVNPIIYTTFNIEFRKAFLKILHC
D4 dopamine receptor, sequence (P21917 whole entry): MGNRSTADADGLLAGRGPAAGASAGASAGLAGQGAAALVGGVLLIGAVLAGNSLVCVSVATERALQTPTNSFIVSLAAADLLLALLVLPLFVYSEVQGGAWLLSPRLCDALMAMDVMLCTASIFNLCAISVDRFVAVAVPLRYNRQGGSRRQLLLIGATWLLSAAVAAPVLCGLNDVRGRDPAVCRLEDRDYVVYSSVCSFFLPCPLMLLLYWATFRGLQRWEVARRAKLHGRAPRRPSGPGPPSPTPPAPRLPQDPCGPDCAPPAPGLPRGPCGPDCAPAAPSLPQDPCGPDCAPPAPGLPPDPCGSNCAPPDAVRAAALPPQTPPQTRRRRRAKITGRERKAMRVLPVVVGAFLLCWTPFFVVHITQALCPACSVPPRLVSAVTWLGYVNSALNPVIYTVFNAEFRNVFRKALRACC

Compound | affinity (dopamine D1 receptor) | other commonly reported adverse events in clinical trials ([1]; oral and injectible forms) | patients experiencing nausea [1, 4] | patients experiencing vomiting [1, 4] | time to take effect ([1]; subcutaneous injection, reported) | affinity (D4 dopamine receptor) | affinity [2] | affinity (D3 dopamine receptor) | affinity (serotonin receptors) | effect on sexual function [3] | affinity (D2 dopamine receptor) | solubility in water (at 80 degrees Celsius) | water solubility
CN1CCc2cccc3c2[C@H]1Cc1ccc(O)c(O)c1-3 [Apomorphine hydrochloride] | low | dizziness, yawning, somnolence, rhinorrhea, sweating, flushing, pallor, hallucinations, edema, and chest pain | 31% | 11% | 10 to 15 min | high | moderate | moderate | low | improvement in sexual function | moderate | soluble | 
c1cnc2cc3c(cc2n1)[C@@H]1CNC[C@H]3C1 [varenicline] |  |  |  |  |  |  |  |  |  |  |  |  | high
